Experimental findings from patent US12435061B2 (priority 2020, dated 2025) are described below.

In this test the target is hTRPV3 (Homo sapiens (Human), UniProt Q8NET8). Nature of the test: Whole-cell patch clamp, hTRPV3 Phase 1 / Phase 2 currents. In kind it is cell-based. The source says:
Whole-cell patch clamp experiments permit the detection of currents through the TRPV3 channel in the cell line described above. A glass electrode is brought into contact with a single cell and the membrane is then ruptured, permitting control of the voltage of the cell membrane and measurement of currents flowing across the membrane using the amplifier attached to the electrode. A perfusion system permits control of the extracellular solution, including the addition of blockers and activators of the current. The current can be activated by heating this solution to 28° C. or warmer or by addition of 20 μM 2-APB to the solution.
TRPV3 cells were induced 20-48 hours, removed from growth plates, and replated at low density (to attain good single-cell physical separation) on glass coverslips for measurement. In some cases, cells were grown in low density overnight on glass coverslips. Patch clamp recordings were made in the whole-cell mode with a holding potential of −40 mV. Every 5 seconds, a voltage ramp was applied from −120 to +100 mV, 400 ms in duration. Currents elicited were quantified at −80 mV and +80 mV. […] External solution was Ringer's solution described above.
P1 refers to the Phase 1 current for human (h) TRPV3, and P2 refers to the Phase 2 current for human (h) TRPV3.
In Tables 3 and 4, Phase 1 refers to Phase 1 current for human (h) TRPV3 or rat (r) TRPV3, and Phase 2 refers to Phase 2 current for human (h) TRPV3 or rat (r) TRPV3. The hTRPV3 and rTRPV3 assays were performed as described herein. hERG refers to the inhibition the human ERG (hERG) channel. NaV1.5, refers to the pore forming aL-subunit of the voltage-dependent cardiac Na(+) channel and is an integral membrane protein involved in the initiation and conduction of action potentials. hTRPV3 HAMA IC50 refers to the IC50 of TRPV3 cells stably expressed in TRex-293 cells. Solubility Ringer refers to the compounds' solubility in Ringer's solution. LM T1/2 refers to liver microsome half-lives in either rat or human liver microsomes. FLIPR IC50 refers to the IC50 of the test compounds against recombinant hTRPV3 cells.
On the technique in general: Patch clamp records ionic current or voltage across a cell membrane.

Where [1] appears, read: Phase 1 current, inward, whole-cell patch clamp, read-out: hTRPV3 Patch P1 Inwd.
Where [2] appears, read: Phase 2 current, inward, whole-cell patch clamp, read-out: hTRPV3 Patch P2 Inwd.
The mark [3] stands for this setting: Phase 1 current, read-out: hTRPV3 (nM) (Phase 1).
Where [4] appears, read: Phase 2 current, read-out: hTRPV3 (nM) (Phase 2).

SMILES strings stand for the structures. Where “and” joins values, the source holds several entries; their conditions need not be identical. Equal entries are not always repeated. Structures can show the parent of a compound that is named as a salt. Where two headings read alike, the source gives them in different places.

hTRPV3, sequence (Q8NET8 whole entry, the tested form may be a part): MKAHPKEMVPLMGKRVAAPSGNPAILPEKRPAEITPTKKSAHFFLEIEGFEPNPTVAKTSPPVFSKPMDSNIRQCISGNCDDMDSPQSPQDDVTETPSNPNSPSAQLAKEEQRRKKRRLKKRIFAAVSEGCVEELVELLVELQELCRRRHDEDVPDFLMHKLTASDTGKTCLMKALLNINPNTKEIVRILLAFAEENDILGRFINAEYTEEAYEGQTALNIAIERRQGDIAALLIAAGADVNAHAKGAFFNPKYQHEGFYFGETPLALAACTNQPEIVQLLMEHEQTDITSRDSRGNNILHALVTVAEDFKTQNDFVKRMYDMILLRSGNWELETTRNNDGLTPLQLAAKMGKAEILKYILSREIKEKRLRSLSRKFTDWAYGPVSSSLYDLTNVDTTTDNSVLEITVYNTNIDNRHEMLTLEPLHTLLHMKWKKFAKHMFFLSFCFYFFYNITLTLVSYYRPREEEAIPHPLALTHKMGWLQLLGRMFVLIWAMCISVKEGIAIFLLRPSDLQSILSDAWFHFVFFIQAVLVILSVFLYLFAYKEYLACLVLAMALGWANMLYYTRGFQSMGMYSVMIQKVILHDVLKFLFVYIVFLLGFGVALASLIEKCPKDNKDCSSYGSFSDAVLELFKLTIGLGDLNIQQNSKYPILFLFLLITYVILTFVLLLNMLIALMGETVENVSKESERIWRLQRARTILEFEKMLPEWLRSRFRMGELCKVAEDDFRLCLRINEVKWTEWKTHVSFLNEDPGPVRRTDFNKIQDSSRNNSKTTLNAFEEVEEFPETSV

As to `CN(C)Cc1ccccc1N1CC[C@@H](Oc2ccc(C(F)(F)F)cn2)C1` [Compound 1-60, (R)—N,N-dimethyl-1-(2-(3-(5-(trifluoromethyl)pyridin-2-yloxy)pyrrolidin-1-yl)phenyl) methanamine hydrochloride], the IC50 was greater than 1000 nM under setting [1] and greater than 1000 nM under setting [2].
For the compound `CN(C)Cc1ccccc1N1CC[C@H](Oc2ccc(C(F)(F)F)cn2)C1` [Compound 1-61, (S)—N,N-dimethyl-1-(2-(3-(5-(trifluoromethyl)pyridin-2-yloxy)pyrrolidin-1-yl)phenyl) methanamine hydrochloride], the IC50 under setting [1] is greater than 1000 nM.
Regarding `N#Cc1ccc(-c2ccccc2)cc1N1CC[C@H](Oc2ccc(C(F)(F)F)cn2)C1` [Compound 1-62, (S)-3-(3-(5-(trifluoromethyl)pyridin-2-yloxy)pyrrolidin-1-yl)biphenyl-4-carbonitrile], the IC50 under setting [1] is greater than 1000 nM and the IC50 under setting [2] is greater than 1000 nM.
As to `NC(=O)c1ccc(-c2ccccc2)cc1N1CC[C@H](Oc2ccc(C(F)(F)F)cn2)C1` [Compound 1-63, (S)-3-(3-(5-(trifluoromethyl)pyridin-2-yloxy)pyrrolidin-1-yl)biphenyl-4-carboxamide], the IC50 by setting is: under setting [1], greater than 1000 nM; under setting [2], greater than 1000 nM.
Take `CC(C)Oc1cc(-c2ccccc2)ccc1N1CC[C@H](Oc2ccc(C(F)(F)F)cn2)C1` [Compound 1-77, (S)-2-(1-(3-isopropoxybiphenyl-4-yl)pyrrolidin-3-yloxy)-5-(trifluoromethyl)pyridine]: the IC50 was greater than 1000 nM under setting [1], greater than 3200 nM under setting [3], greater than 1000 nM under setting [2] and 1470 nM under setting [4].
`NC(=O)c1cc(-c2ccccc2)ccc1N1CC[C@@H](Oc2ccccn2)C1` [Compound 1-78, (R)-4-(3-(pyridin-2-yloxy)pyrrolidin-1-yl)biphenyl-3-carboxamide]: the IC50 under setting [1] lay within 100 to 1000 nM, the IC50 under setting [3] was roughly 835 nM, the IC50 under setting [2] fell in the range of 100 to 1000 nM and the IC50 under setting [4] worked out at 402 nM.
As to `NC(=O)c1cc(-c2ccncc2)ccc1N1CC[C@@H](Oc2ccccn2)C1` [Compound 1-79, (R)-2-(3-(pyridin-2-yloxy)pyrrolidin-1-yl)-5-(pyridin-4-yl)benzamide], the IC50 is greater than 1000 nM under setting [1], greater than 3200 nM under setting [3], greater than 1000 nM under setting [2] and greater than 3200 nM under setting [4].
Consider `NC(=O)c1cc(-c2ccncc2)ccc1N1CC[C@@H](Oc2ncccc2Cl)C1` [Compound 1-82, (R)-2-(3-(3-chloropyridin-2-yloxy)pyrrolidin-1-yl)-5-(pyridin-4-yl)benzamide hydrochloride], for which the IC50 was greater than 1000 nM under setting [1], 3600 nM under setting [3], greater than 1000 nM under setting [2] and 1930 nM under setting [4].
Consider `NC(=O)c1cc(C(F)(F)F)ccc1N1CC[C@@H](Oc2ccc(C(F)(F)F)cn2)C1` [Compound 1-84, (R)-5-(trifluoromethyl)-2-(3-(5-(trifluoromethyl)pyridin-2-yloxy)pyrrolidin-1-yl)benzamide], for which the IC50 is, setting by setting: under setting [1], 100 to 1000 nM; under setting [3], 631 nM.
Turning to `NC(=O)c1cc(-c2ccccn2)ccc1N1CC[C@@H](Oc2ncccc2Cl)C1` [Compound 1-85, (R)-2-(3-(3-chloropyridin-2-yloxy)pyrrolidin-1-yl)-5-(pyridin-2-yl)benzamide], the IC50 reads like this: under setting [1], greater than 1000 nM; under setting [3], 3480 nM.
On to `NC(=O)c1cc(-c2ccccc2)ccc1N1CC[C@@H](Oc2ccc3cc(Cl)ccc3n2)C1` [Compound 1-86, (R)-4-(3-(6-chloroquinolin-2-yloxy)pyrrolidin-1-yl)biphenyl-3-carboxamide], for which the IC50 is greater than 1000 nM under setting [2] and greater than 3200 nM under setting [4].
On to `NC(=O)c1cc(-c2cccnc2)ccc1N1CC[C@@H](Oc2ccccn2)C1` [Compound 1-87, hydrochloride], for which the IC50 under setting [1] is greater than 1000 nM.
With `NC(=O)c1cc(-c2ccccn2)ccc1N1CC[C@@H](Oc2ccccn2)C1` [Compound 1-88, (R)-5-(pyridin-2-yl)-2-(3-(pyridin-2-yloxy)pyrrolidin-1-yl)benzamide], the IC50 by setting is: under setting [1], greater than 1000 nM; under setting [3], greater than 3200 nM; under setting [2], greater than 1000 nM; under setting [4], greater than 3200 nM.
For the compound `Oc1cc(-c2ccccc2)ccc1N1CC[C@@H](Oc2ccc(C(F)(F)F)cn2)C1` [Compound 1-89, (R)-4-(3-(5-(trifluoromethyl)pyridin-2-yloxy)pyrrolidin-1-yl)biphenyl-3-ol], the IC50 by setting is: under setting [1], greater than 1000 nM; under setting [3], greater than 3200 nM; under setting [2], greater than 1000 nM; under setting [4], greater than 3200 nM.
For the compound `NC(=O)c1cc(-c2ccccc2)cnc1N1CC[C@@H](Oc2ncccc2Cl)C1` [Compound 1-90, (R)-2-(3-(3-chloropyridin-2-yloxy)pyrrolidin-1-yl)-5-phenylnicotinamide], the IC50 was greater than 1000 nM under setting [1], roughly 3000 nM under setting [3], greater than 1000 nM under setting [2] and 1600 nM under setting [4].
In the case of `O=C(O)c1cc(-c2ccccc2)cnc1N1CC[C@@H](Oc2ccc(C(F)(F)F)cn2)C1` [Compound 1-91], where the note is “Phase 1 current”, the “hTRPV3 (nM) (Phase 1)” value is “Agonist (Phase 1)”.
With `NC(=O)c1cc(-c2ccccc2)cnc1N1CC[C@@H](Oc2ccc(C(F)(F)F)cn2)C1` [Compound 1-92, (R)-5-phenyl-2-(3-(5-(trifluoromethyl)pyridin-2-yloxy)pyrrolidin-1-yl)nicotinamide], the “hTRPV3 (nM) (Phase 1)” value (Phase 1 current) was “Incomplete Block (Phase 1) Incomplete Block (Phase 2)”. In addition, the “hTRPV3 (nM) (Phase 2)” value (Phase 2 current) is given as “Incomplete Block (Phase 1) Incomplete Block (Phase 2)”.
Consider `Nc1cc(-c2ccccc2)ccc1N1CC[C@@H](Oc2ccc(C(F)(F)F)cn2)C1` [Compound 1-93, (R)-4-(3-(5-(trifluoromethyl)pyridin-2-yloxy)pyrrolidin-1-yl)biphenyl-3-amine], for which the “hTRPV3 (nM) (Phase 2)” value (Phase 2 current) is on record as “Incomplete Block”. Besides, the IC50 (hTRPV3 (nM) (Phase 2), Phase 2 current) was 494 nM and < 320 nM.
As to `O=C1C(Oc2ccc3ccccc3n2)CCN1c1ccc(-c2ccccc2)cc1` (centres unmarked) [Compound 1-95, 1-(biphenyl-4-yl)-3-(quinolin-2-yloxy)pyrrolidin-2-one], the IC50 is, setting by setting: under setting [1], greater than 1000 nM; under setting [3], greater than 3200 nM.
In the case of `N#Cc1nc(-c2ccccc2)ccc1N1CC[C@@H](Oc2ccc(C(F)(F)F)cn2)C1` [Compound 1-97], the IC50 runs as follows: under setting [2], greater than 1000 nM; under setting [4], 2930 nM.
In the case of `NC(=O)c1nc(-c2ccccc2)ccc1N1CC[C@@H](Oc2ccc(C(F)(F)F)cn2)C1` [Compound 1-98, (R)-6-phenyl-3-(3-(5-(trifluoromethyl)pyridin-2-yloxy)pyrrolidin-1-yl)picolinamide], the IC50 by setting is: under setting [1], 100 to 1000 nM; under setting [3], 479 nM.
For `NC(=O)c1cc(-c2ccccc2)ncc1N1CC[C@@H](Oc2ccc(C(F)(F)F)cn2)C1` [Compound 1-99, (R)-2-phenyl-5-(3-(5-(trifluoromethyl)pyridin-2-yloxy)pyrrolidin-1-yl)isonicotinamide], the IC50 under setting [1] lay in the range of 100 to 1000 nM, the IC50 under setting [3] was roughly 787 nM, the IC50 under setting [2] was 100 to 1000 nM and the IC50 under setting [4] was 349 nM.
As for `NC(=O)c1cc(C2=NCCN2)ccc1N1CC[C@@H](Oc2ccc(C(F)(F)F)cn2)C1` [Compound 1-100, (R)-5-(4,5-dihydro-1H-imidazol-2-yl)-2-(3-(5-(trifluoromethyl)pyridin-2-yloxy)pyrrolidin-1-yl)benzamide], the IC50 (hTRPV3 Patch P1 Inwd (nM)) is greater than 1000 nM, the IC50 (hTRPV3 Patch P2 Inwd (nM)) is greater than 1000 nM, the IC50 (read-out: hTRPV3 (nM) (Phase 1)) was greater than 3200 nM and the IC50 (read-out: hTRPV3 (nM) (Phase 2)) was greater than 3200 nM.
For `O=C1C(Oc2ccc3ccccc3n2)CCN1c1cccc2ccccc12` (centres unmarked) [Compound 1-101], the IC50 under setting [1] was greater than 1000 nM, the IC50 under setting [3] is greater than 1000 nM, the IC50 under setting [2] is greater than 1000 nM and the IC50 under setting [4] was greater than 1000 nM.
For `N#Cc1ccccc1N1CCC(Oc2ccc3ccccc3n2)C1=O` (centres unmarked) [Compound 1-103, 2-(2-oxo-3-(quinolin-2-yloxy)pyrrolidin-1-yl)benzonitrile], the IC50 was greater than 1000 nM under setting [1] and greater than 3200 nM under setting [3].
For `O=C1C(Oc2ccc3ccccc3n2)CCN1c1ccccc1` (centres unmarked) [Compound 1-104, 1-phenyl-3-(quinolin-2-yloxy)pyrrolidin-2-one] the same measures were greater than 1000 nM and greater than 3200 nM.
For `NC(=O)c1ccccc1N1CCC(Oc2ccc3ccccc3n2)C1=O` (centres unmarked) [Compound 1-105, 2-(2-oxo-3-(quinolin-2-yloxy)pyrrolidin-1-yl)benzamide] the same measures were greater than 1000 nM and greater than 3200 nM.
